Assay results taken from the NIST ThermoML archive (doi:10.1016/j.jct.2015.12.005).
Several values for one entry are separate records, joined by “and”; a condition that tells them apart may be missing. Equal entries are not always repeated.

Legend:
[1] = for mass density: Vibrating tube method; for vapor or sublimation pressure: Twin ebulliometer; for Triple point temperature: Adiabatic calorimetry
[2] = Molar enthalpy of transition or fusion; details: Adiabatic calorimetry

c1ccc2c(c1)CCC2 [indane]
[1]
Details	mass density [kg/m3]	molar entropy [J/K/mol]	vapor or sublimation pressure
5 K, Crystal 2, Vacuum adiabatic calorimetry	–	0.09977	–
10 K, Crystal 2, Vacuum adiabatic calorimetry	–	0.873	–
20 K, Crystal 2, Vacuum adiabatic calorimetry	–	5.878	–
30 K, Crystal 2, Vacuum adiabatic calorimetry	–	13.6	–
40 K, Crystal 2, Vacuum adiabatic calorimetry	–	22.12	–
50 K, Crystal 2, Vacuum adiabatic calorimetry	–	30.71	–
60 K, Crystal 2, Vacuum adiabatic calorimetry	–	39.24	–
62 K, Crystal 2, Vacuum adiabatic calorimetry	–	40.96	–
64 K, Crystal 2, Vacuum adiabatic calorimetry	–	42.68	–
66 K, Crystal 2, Vacuum adiabatic calorimetry	–	44.42	–
68 K, Crystal 2, Vacuum adiabatic calorimetry	–	46.19	–
70 K, Crystal 2, Vacuum adiabatic calorimetry	–	48	–
72 K, Crystal 2, Vacuum adiabatic calorimetry	–	49.85	–
73.83 K, Crystal 1, Vacuum adiabatic calorimetry	–	53.65	–
73.83 K, Crystal 2, Vacuum adiabatic calorimetry	–	51.59	–
74 K, Crystal 1, Vacuum adiabatic calorimetry	–	53.79	–
76 K, Crystal 1, Vacuum adiabatic calorimetry	–	55.33	–
78 K, Crystal 1, Vacuum adiabatic calorimetry	–	56.85	–
80 K, Crystal 1, Vacuum adiabatic calorimetry	–	58.36	–
90 K, Crystal 1, Vacuum adiabatic calorimetry	–	65.61	–
100 K, Crystal 1, Vacuum adiabatic calorimetry	–	72.48	–
120 K, Crystal 1, Vacuum adiabatic calorimetry	–	85.36	–
140 K, Crystal 1, Vacuum adiabatic calorimetry	–	97.4	–
160 K, Crystal 1, Vacuum adiabatic calorimetry	–	108.88	–
180 K, Crystal 1, Vacuum adiabatic calorimetry	–	120	–
200 K, Crystal 1, Vacuum adiabatic calorimetry	–	130.94	–
220 K, Crystal 1, Vacuum adiabatic calorimetry	–	141.81	–
221.79 K, Crystal 1, Vacuum adiabatic calorimetry	–	142.78	–
323.15 K, Liquid	937.2	–	–
338.12 K, Liquid	–	–	2 kPa
344.12 K, Liquid	–	–	2.666 kPa
348.15 K, Liquid	915.6	–	–
353.03 K, Liquid	–	–	4 kPa
359.69 K, Liquid	–	–	5.333 kPa
369.61 K, Liquid	–	–	7.999 kPa
373.15 K, Liquid	893.7	–	–
377.06 K, Liquid	–	–	10.67 kPa
383.1 K, Liquid	–	–	13.33 kPa
389.37 K, Liquid	–	–	16.66 kPa
394.58 K, Liquid	–	–	19.93 kPa
398.15 K, Liquid	871.2	–	–
401.44 K, Liquid	–	–	25.02 kPa and 25.02 kPa
408.36 K, Liquid	–	–	31.17 kPa
415.33 K, Liquid	–	–	38.56 kPa
422.35 K, Liquid	–	–	47.37 kPa
423.15 K, Liquid	848.5	–	–
429.42 K, Liquid	–	–	57.81 kPa
436.54 K, Liquid	–	–	70.11 kPa
443.71 K, Liquid	–	–	84.53 kPa
448.15 K, Liquid	824.8	–	–
450.93 K, Liquid	–	–	101.32 kPa
458.2 K, Liquid	–	–	120.78 kPa
465.53 K, Liquid	–	–	143.23 kPa
472.9 K, Liquid	–	–	169 kPa
473.15 K, Liquid	799.8	–	–
480.33 K, Liquid	–	–	198.46 kPa
487.8 K, Liquid	–	–	231.99 kPa
495.33 K, Liquid	–	–	269.98 kPa
498.15 K, Liquid	774	–	–
523.15 K, Liquid	745.8	–	–

[1], Liquid
Details	molar entropy [J/K/mol]
221.79 K, Vacuum adiabatic calorimetry	181.35
230 K, Vacuum adiabatic calorimetry	187.35
240 K, Vacuum adiabatic calorimetry	194.49
250 K, Vacuum adiabatic calorimetry	201.46
260 K, Vacuum adiabatic calorimetry	208.28
270 K, Vacuum adiabatic calorimetry	214.98
280 K, Vacuum adiabatic calorimetry	221.57
290 K, Vacuum adiabatic calorimetry	228.06
298.15 K, Vacuum adiabatic calorimetry	233.26
300 K, Vacuum adiabatic calorimetry	234.44
310 K, Vacuum adiabatic calorimetry	240.74
320 K, Vacuum adiabatic calorimetry	246.96
330 K, Vacuum adiabatic calorimetry	253.13
333.38 K, Vacuum adiabatic calorimetry	255.19
340 K, Vacuum adiabatic calorimetry	259.22
350 K, Vacuum adiabatic calorimetry	265.26
360 K, Vacuum adiabatic calorimetry	271.24
370 K, Vacuum adiabatic calorimetry	277.19
380 K, Vacuum adiabatic calorimetry	283.07
390 K, Vacuum adiabatic calorimetry	288.92
400 K, Vacuum adiabatic calorimetry	294.73
410 K, Vacuum adiabatic calorimetry	300.49
420 K, Vacuum adiabatic calorimetry	306.23
430 K, Vacuum adiabatic calorimetry	311.92
440 K, Vacuum adiabatic calorimetry	317.58
450 K, Small sample (50 mg) DSC	323.22
460 K, Small sample (50 mg) DSC	328.83
470 K, Small sample (50 mg) DSC	334.43
480 K, Small sample (50 mg) DSC	340.01
490 K, Small sample (50 mg) DSC	345.57
500 K, Small sample (50 mg) DSC	351.1
510 K, Small sample (50 mg) DSC	356.62
520 K, Small sample (50 mg) DSC	362.11
530 K, Small sample (50 mg) DSC	367.58
540 K, Small sample (50 mg) DSC	373.04
550 K, Small sample (50 mg) DSC	378.48
560 K, Small sample (50 mg) DSC	383.9
570 K, Small sample (50 mg) DSC	389.31
580 K, Small sample (50 mg) DSC	394.7
590 K, Small sample (50 mg) DSC	400.08
600 K, Small sample (50 mg) DSC	405.43

Details	Molar enthalpy of transition or fusion, [2] [kcal/mol]	Triple point temperature, [1] [K]
Crystal 1	2.044	221.79
Crystal 2	0.0363	73.83
